Source: ChEMBL document CHEMBL1201862, “PubChem BioAssay data set” (2004)
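Assay format: 96-well plates, 48-hour exposure. GI50 marks 50% less growth.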 Active and inactive are the calls of the source. Rule as the data show it: active = GI50 up to about 1.1 µM and inactive = higher.

Legend:
Assay in all cases: NCI anticancer screen, dose series, 48 h
TK-10 = test system: TK-10
OVCAR-8 = test system: OVCAR-8
A549 = test system: A549
CCRF-CEM = test system: CCRF-CEM
IGROV-1 = test system: IGROV-1
A498 = test system: A498
SNB-78 = test system: SNB-78
K562 = test system: K562
SNB-75 = test system: SNB-75
UACC-257 = test system: UACC-257
ACHN = test system: ACHN
SF-539 = test system: SF-539
UACC-62 = test system: UACC-62
786-0 = test system: 786-0
LXFL 529 = test system: LXFL 529
SR = test system: SR
MDA-MB-435 = test system: MDA-MB-435
T47D = test system: T47D
MDA-MB-231 = test system: MDA-MB-231
Hs-578T = test system: Hs-578T

Row | SMILES | GI50 (TK-10) | GI50 (OVCAR-8) | GI50 (A549) | GI50 (CCRF-CEM) | GI50 (IGROV-1) | GI50 (A498) | GI50 (SNB-78) | GI50 (K562) | GI50 (SNB-75) | GI50 (UACC-257) | GI50 (ACHN) | GI50 (SF-539) | GI50 (UACC-62) | GI50 (786-0) | GI50 (LXFL 529) | GI50 (SR) | GI50 (MDA-MB-435) | GI50 (T47D) | GI50 (MDA-MB-231) | GI50 (Hs-578T)
1 | BrC1=CC=C2NCCCCCC/N=C3\C=CC(Br)=CC=C3NCCCCCC/N=C\2C=C1 | > 25.5 µM (inactive) | > 25.5 µM (inactive) | > 25.5 µM (inactive) | > 25.5 µM (inactive) | > 25.5 µM (inactive) | > 25.5 µM (inactive) | > 25.5 µM (inactive) | > 25.5 µM (inactive) | > 25.5 µM (inactive) | > 25.5 µM (inactive) | > 25.5 µM (inactive) | > 25.5 µM (inactive) | > 25.5 µM (inactive) | > 25.5 µM (inactive) |  |  |  |  |  | 
2 | Nc1nc2c(-c3ccc([N+](=O)[O-])cc3)nnn2c2ccccc12 | 21 µM (inactive) | 75.9 µM (inactive) | > 100 µM (inactive) | > 10 µM (inactive) | > 100 µM (inactive) | > 100 µM (inactive) | 81.1 µM (inactive) | > 100 µM (inactive) | > 10 µM (inactive) |  | > 100 µM (inactive) | > 100 µM (inactive) | > 100 µM (inactive) | 84.5 µM (inactive) | > 100 µM (inactive) |  |  |  |  | 
3 | CCc1cccc(CC)c1NC(=O)C1=C(C)NC(C)=C(C(=O)Nc2c(CC)cccc2CC)C1c1ccc([N+](=O)[O-])cc1 | 30.4 µM (inactive) | 20.4 µM (inactive) | 23 µM (inactive) | 15.5 µM (inactive) | 14.4 µM (inactive) | 19 µM (inactive) |  | 19.1 µM (inactive) | 24.5 µM (inactive) | 15.4 µM (inactive) | 27.4 µM (inactive) | 16.2 µM (inactive) |  | 13.9 µM (inactive) | 16.8 µM (inactive) |  |  |  |  | 
4 | COc1ccc2ccccc2c1C1OC(=O)c2ccccc21 (stereo unspecified) | > 100 µM (inactive) | > 100 µM (inactive) | 96.2 µM (inactive) | > 100 µM (inactive) | > 100 µM (inactive) | > 100 µM (inactive) | > 100 µM (inactive) | 33 µM (inactive) |  | 91 µM (inactive) | > 100 µM (inactive) | > 100 µM (inactive) | 80 µM (inactive) | > 100 µM (inactive) |  |  |  |  |  | 
5 | CS(=O)(=O)CC1=Nc2nnc(CCCCCCCc3nnc4n3C(=O)C(CS(C)(=O)=O)=N4)n2C1=O | > 100 µM (inactive) | > 100 µM (inactive) | > 100 µM (inactive) | > 100 µM (inactive) | > 100 µM (inactive) | > 100 µM (inactive) |  | > 100 µM (inactive) | > 100 µM (inactive) | > 100 µM (inactive) | > 100 µM (inactive) | > 100 µM (inactive) | > 100 µM (inactive) | > 100 µM (inactive) | > 100 µM (inactive) | > 100 µM (inactive) |  |  |  | 
6 | Cc1cc(/N=C/c2ccc(N(C)C)cc2)n(-c2ccccc2)n1 | 46.8 µM (inactive) | 78 µM (inactive) | 42.4 µM (inactive) | 22.2 µM (inactive) | 50.6 µM (inactive) | 26.1 µM (inactive) |  | 44.6 µM (inactive) | 40.6 µM (inactive) | 91.4 µM (inactive) | > 100 µM (inactive) | 45.9 µM (inactive) | 86.7 µM (inactive) | 51.8 µM (inactive) |  | 19.1 µM (inactive) | 4.4 µM (inactive) | 18.5 µM (inactive) | 91.6 µM (inactive) | 29.9 µM (inactive)
7 | OC(O)(C(F)(F)F)C(F)(F)F | > 100 µM (inactive) | > 100 µM (inactive) | > 100 µM (inactive) | > 100 µM (inactive) | > 100 µM (inactive) | > 100 µM (inactive) |  | > 100 µM (inactive) | > 100 µM (inactive) | > 100 µM (inactive) | > 100 µM (inactive) | > 100 µM (inactive) | > 100 µM (inactive) | > 100 µM (inactive) |  | > 100 µM (inactive) | > 100 µM (inactive) | > 100 µM (inactive) | > 100 µM (inactive) | > 100 µM (inactive)
8 | CC(=O)Nc1ccc(/C=C2/NC(=S)N(/C=C3\C(=O)Oc4ccccc4C3=O)C2=O)cc1 | 55.8 µM (inactive) | 38.6 µM (inactive) | 58.9 µM (inactive) | 45.1 µM (inactive) | 49 µM (inactive) | 87.5 µM (inactive) |  | 49.4 µM (inactive) | 15.8 µM (inactive) | > 100 µM (inactive) | > 100 µM (inactive) | 96.2 µM (inactive) | 77.3 µM (inactive) | 69 µM (inactive) |  | 39.3 µM (inactive) | 75.5 µM (inactive) | 64.3 µM (inactive) | 16.2 µM (inactive) | 22.5 µM (inactive)
9 | CC(C)(C)c1cc(C(=O)C2Cc3ccccc3C(=O)O2)cc(C(C)(C)C)c1O (stereo unspecified) | 15.3 µM (inactive) | 10.4 µM (inactive) | 13.1 µM (inactive) | 5.01 µM (inactive) | 14.5 µM (inactive) | 13.5 µM (inactive) |  | 11.4 µM (inactive) | 17.3 µM (inactive) | 11.6 µM (inactive) | 17.1 µM (inactive) | 14.2 µM (inactive) | 12.1 µM (inactive) | 12.3 µM (inactive) |  | 3.59 µM (inactive) | 10.7 µM (inactive) | 16.5 µM (inactive) | 12.1 µM (inactive) | 29.3 µM (inactive)
10 | O=C1C(/C=N/CCc2c[nH]c3ccccc23)C(C(F)(F)F)=NN1c1nc2ccccc2s1 (stereo unspecified) | 25.4 µM (inactive) | 29.7 µM (inactive) | 18.3 µM (inactive) | 19.5 µM (inactive) | 24.4 µM (inactive) | 20.3 µM (inactive) |  | 29.2 µM (inactive) | 24.8 µM (inactive) | 18 µM (inactive) | 27.4 µM (inactive) | 31.1 µM (inactive) | 19.5 µM (inactive) | 39.2 µM (inactive) |  | 31.6 µM (inactive) | 25.4 µM (inactive) | 0.664 µM (active) | 36.7 µM (inactive) | 44.1 µM (inactive)
11 | N#C/C=C1\C=CC(O)C(O)C1OC1OC(CO)C(O)C(O)C1O (stereo unspecified) | > 100 µM (inactive) | > 100 µM (inactive) | > 100 µM (inactive) | > 100 µM (inactive) | > 100 µM (inactive) | > 100 µM (inactive) |  | > 100 µM (inactive) | > 100 µM (inactive) | > 100 µM (inactive) | > 100 µM (inactive) | > 100 µM (inactive) | > 100 µM (inactive) | > 100 µM (inactive) |  | > 10 µM (inactive) | > 100 µM (inactive) | > 100 µM (inactive) | > 100 µM (inactive) | > 100 µM (inactive)
12 | Cc1cccc(NC(=O)/C(=N\NC(C)(C)C)C2NC(=S)NC2=O)c1C (stereo unspecified) | > 100 µM (inactive) | > 100 µM (inactive) | > 100 µM (inactive) | > 100 µM (inactive) | > 100 µM (inactive) | > 100 µM (inactive) | > 100 µM (inactive) | > 100 µM (inactive) |  | > 100 µM (inactive) | > 100 µM (inactive) | > 100 µM (inactive) | > 100 µM (inactive) | > 100 µM (inactive) | > 100 µM (inactive) |  |  |  |  | 
